Experimental data: paper PMC7321065, “Discovery of New Schiff Bases Tethered Pyrazole Moiety: Design, Synthesis, Biological Evaluation, and Molecular Docking Study as Dual Targeting DHFR/DNA Gyrase Inhibitors with Immunomodulatory Activity” (Molecules, 2020)
In brackets after ≈: the same amount, converted by molar mass. Read-outs that look alike come from different tables or passages of the source.

Experiments:
[1] = target: S. aureus DNA Gyrase (Staphylococcus aureus, UniProt P0A0K8+P20831); assay: DNA gyrase enzyme assay; type: biochemical; details: Mean ± SEM
Chain of S. aureus DNA Gyrase (P20831 whole entry, the tested form may be a part): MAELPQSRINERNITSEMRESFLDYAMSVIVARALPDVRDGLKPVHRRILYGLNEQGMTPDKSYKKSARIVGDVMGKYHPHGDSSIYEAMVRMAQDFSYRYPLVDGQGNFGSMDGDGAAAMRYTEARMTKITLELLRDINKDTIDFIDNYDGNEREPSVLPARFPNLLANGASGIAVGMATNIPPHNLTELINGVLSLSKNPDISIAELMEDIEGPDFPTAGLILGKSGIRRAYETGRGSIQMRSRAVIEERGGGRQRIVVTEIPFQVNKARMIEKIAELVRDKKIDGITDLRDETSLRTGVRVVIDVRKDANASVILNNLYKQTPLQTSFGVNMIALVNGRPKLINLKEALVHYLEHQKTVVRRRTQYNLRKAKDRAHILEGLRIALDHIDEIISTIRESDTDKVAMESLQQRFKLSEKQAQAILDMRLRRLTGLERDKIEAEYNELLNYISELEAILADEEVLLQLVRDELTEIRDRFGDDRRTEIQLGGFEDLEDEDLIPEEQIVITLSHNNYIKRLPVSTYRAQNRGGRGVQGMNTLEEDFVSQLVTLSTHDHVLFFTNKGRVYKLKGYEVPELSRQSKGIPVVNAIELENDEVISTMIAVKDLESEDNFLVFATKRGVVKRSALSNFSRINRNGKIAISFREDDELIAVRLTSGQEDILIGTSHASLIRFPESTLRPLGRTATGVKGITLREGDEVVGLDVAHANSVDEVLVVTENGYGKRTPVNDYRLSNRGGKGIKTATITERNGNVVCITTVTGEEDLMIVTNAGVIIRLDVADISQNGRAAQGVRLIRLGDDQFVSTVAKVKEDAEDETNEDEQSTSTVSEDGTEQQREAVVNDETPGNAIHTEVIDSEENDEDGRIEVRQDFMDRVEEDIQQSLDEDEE
Chain of S. aureus DNA Gyrase (P0A0K8 whole entry, the tested form may be a part): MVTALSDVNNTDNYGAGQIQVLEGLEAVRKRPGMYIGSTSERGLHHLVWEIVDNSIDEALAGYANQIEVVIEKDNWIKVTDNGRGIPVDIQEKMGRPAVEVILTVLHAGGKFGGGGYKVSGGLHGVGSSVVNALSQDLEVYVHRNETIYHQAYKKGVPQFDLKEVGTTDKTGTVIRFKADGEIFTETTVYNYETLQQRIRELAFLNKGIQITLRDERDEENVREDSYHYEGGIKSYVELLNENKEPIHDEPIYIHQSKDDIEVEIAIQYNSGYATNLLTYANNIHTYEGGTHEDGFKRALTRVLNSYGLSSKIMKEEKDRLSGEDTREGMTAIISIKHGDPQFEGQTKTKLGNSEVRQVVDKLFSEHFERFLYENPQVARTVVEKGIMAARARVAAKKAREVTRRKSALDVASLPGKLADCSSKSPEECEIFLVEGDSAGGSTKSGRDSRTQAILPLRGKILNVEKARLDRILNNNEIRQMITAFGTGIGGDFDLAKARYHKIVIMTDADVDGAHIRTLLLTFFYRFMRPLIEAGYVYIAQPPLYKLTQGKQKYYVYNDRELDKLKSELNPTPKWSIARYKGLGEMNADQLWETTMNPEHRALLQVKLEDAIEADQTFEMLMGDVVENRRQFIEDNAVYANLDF

[2] = test system: Staphylococcus aureus; assay: MIC/MBC, paper disk diffusion; type: cell-based; details: Staphylococcus aureus, S. aureus; for MBC: read-out: MBC; for MIC: read-out: MIC
In short: (§1)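 MIC and MBC were obtained by paper disk diffusion, bacteria grown on nutrient agar and fungi/yeast on Sabouraud agar. MIC is the lowest concentration inhibiting growth.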

[3] = test system: Enterococcus faecalis; assay: MIC/MBC, paper disk diffusion; type: cell-based; details: E. faecalis; for MBC: read-out: MBC; for MIC: read-out: MIC
In short: as §1

[4] = test system: Salmonella typhi; assay: MIC/MBC, paper disk diffusion; type: cell-based; details: Salmonella enterica, S. typhi; for MBC: read-out: MBC
In short: as §1

[5] = test system: Pseudomonas aeruginosa; assay: MIC/MBC, paper disk diffusion; type: cell-based; details: P. aeruginosa; for MBC / MIC: Pseudomonas aeruginosa; for MBC: read-out: MBC; for MIC: read-out: MIC
In short: as §1

[6] = test system: Escherichia coli; assay: MIC/MBC, paper disk diffusion; type: cell-based; details: E. coli; for MBC / MIC: Escherichia coli; for MBC: read-out: MBC; for MIC: read-out: MIC
In short: as §1

[7] = test system: Bacillus subtilis; assay: MIC/MBC, paper disk diffusion; type: cell-based; details: B. subtilis; for MBC: read-out: MBC
In short: as §1

[8] = test system: S. aureus ATCC 43300 (MRSA); assay: Inhibition zone against MDRB, agar plate diffusion; type: cell-based
[9] = test system: Enterococcus faecalis; assay: Inhibition zone, agar plate diffusion; type: cell-based; details: Ef, mm ± standard deviation, sample at 0.5 mg/mL, read-out: Inhibition zone (IZ)
In short: (§2)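 Compounds in DMSO, with DMSO as negative control, were tested at 0.5 mg/mL in agar wells cut 10 mm wide.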

[10] = test system: Pseudomonas aeruginosa; assay: Inhibition zone, agar plate diffusion; type: cell-based; details: Pa, mm ± standard deviation, sample at 0.5 mg/mL, read-out: Inhibition zone (IZ)
In short: as §2

[11] = test system: Escherichia coli; assay: Inhibition zone, agar plate diffusion; type: cell-based; details: Ec, mm ± standard deviation, sample at 0.5 mg/mL, read-out: Inhibition zone (IZ)
In short: as §2

[12] = test system: Bacillus subtilis; assay: Inhibition zone, agar plate diffusion; type: cell-based; details: Bs, mm ± standard deviation, sample at 0.5 mg/mL, read-out: Inhibition zone (IZ)
In short: as §2

[13] = test system: P. aeruginosa ATCC BAA-2111; assay: Inhibition zone against MDRB, agar plate diffusion; type: cell-based
[14] = test system: S. aureus ATCC 33591; assay: Inhibition zone against MDRB, agar plate diffusion; type: cell-based
[15] = test system: Staphylococcus aureus; assay: Inhibition zone, agar plate diffusion; type: cell-based; details: Sa, mm ± standard deviation, sample at 0.5 mg/mL, read-out: Inhibition zone (IZ)
In short: as §2

[16] = test system: Salmonella typhi; assay: Inhibition zone, agar plate diffusion; type: cell-based; details: Salmonella enterica, St, mm ± standard deviation, sample at 0.5 mg/mL, read-out: Inhibition zone (IZ)
In short: as §2

[17] = test system: Fusarium oxysporum; assay: Inhibition zone, agar plate diffusion; type: cell-based; details: Fo, mm ± standard deviation, sample at 0.5 mg/mL, read-out: Inhibition zone (IZ)
In short: as §2

[18] = test system: Candida albicans; assay: Inhibition zone, agar plate diffusion; type: cell-based; details: Ca, mm ± standard deviation, sample at 0.5 mg/mL, read-out: Inhibition zone (IZ)
In short: as §2

[19] = target: DHFR E. coli (Escherichia coli, UniProt P0ABQ4); assay: Dihydrofolate reductase enzyme assay; type: biochemical; details: for Fold potential relative to Trimethoprim (IC50): DHFR
Chain of DHFR E. coli (P0ABQ4 whole entry): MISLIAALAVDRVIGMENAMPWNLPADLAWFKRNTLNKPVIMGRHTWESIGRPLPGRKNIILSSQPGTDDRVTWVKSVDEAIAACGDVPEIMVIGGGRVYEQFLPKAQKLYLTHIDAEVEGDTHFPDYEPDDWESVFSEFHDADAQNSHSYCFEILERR

[20] = test system: hepatocellular carcinoma cell line (HepG2); assay: Antiproliferative activity, MTT assay; type: cell-based, human; details: Homo sapiens, HepG2; MTT, 48 h; read-out: IC50 HepG-2
In short: (§3)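 MTT added for 4 h, formazan dissolved in DMSO, absorbance at 590 nm. Viability relative to untreated cells; IC50 by probit analysis.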

[21] = test system: mammary gland breast cancer cell line (MCF-7); assay: Antiproliferative activity, MTT assay; type: cell-based, human; details: for IC50: Homo sapiens, MCF7, MTT, 48 h, read-out: IC50 MCF-7; for Fold relative to doxorubicin (IC50): MCF-7
In short: as §3

[22] = target: B. subtilis DNA Gyrase (Bacillus subtilis, UniProt P05652+P05653); assay: DNA gyrase enzyme assay; type: biochemical; details: Mean ± SEM
Chain of B. subtilis DNA Gyrase (P05652 whole entry): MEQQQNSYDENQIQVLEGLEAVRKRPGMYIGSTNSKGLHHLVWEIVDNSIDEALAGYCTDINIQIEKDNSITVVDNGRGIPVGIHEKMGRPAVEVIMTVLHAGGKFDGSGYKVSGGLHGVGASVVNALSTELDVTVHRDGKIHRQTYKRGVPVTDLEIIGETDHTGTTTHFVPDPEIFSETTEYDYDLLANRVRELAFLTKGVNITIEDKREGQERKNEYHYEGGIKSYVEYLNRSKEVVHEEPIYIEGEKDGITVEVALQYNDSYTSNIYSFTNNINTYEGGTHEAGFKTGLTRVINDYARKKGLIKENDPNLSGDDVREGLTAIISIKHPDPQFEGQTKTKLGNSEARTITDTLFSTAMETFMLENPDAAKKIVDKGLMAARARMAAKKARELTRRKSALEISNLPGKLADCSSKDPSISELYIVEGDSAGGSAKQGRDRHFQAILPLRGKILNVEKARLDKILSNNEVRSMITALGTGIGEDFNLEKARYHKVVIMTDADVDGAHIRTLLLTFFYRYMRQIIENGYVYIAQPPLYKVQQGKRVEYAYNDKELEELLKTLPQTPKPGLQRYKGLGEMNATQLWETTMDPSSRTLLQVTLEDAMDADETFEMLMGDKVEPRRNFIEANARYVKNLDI
Chain of B. subtilis DNA Gyrase (P05653 whole entry): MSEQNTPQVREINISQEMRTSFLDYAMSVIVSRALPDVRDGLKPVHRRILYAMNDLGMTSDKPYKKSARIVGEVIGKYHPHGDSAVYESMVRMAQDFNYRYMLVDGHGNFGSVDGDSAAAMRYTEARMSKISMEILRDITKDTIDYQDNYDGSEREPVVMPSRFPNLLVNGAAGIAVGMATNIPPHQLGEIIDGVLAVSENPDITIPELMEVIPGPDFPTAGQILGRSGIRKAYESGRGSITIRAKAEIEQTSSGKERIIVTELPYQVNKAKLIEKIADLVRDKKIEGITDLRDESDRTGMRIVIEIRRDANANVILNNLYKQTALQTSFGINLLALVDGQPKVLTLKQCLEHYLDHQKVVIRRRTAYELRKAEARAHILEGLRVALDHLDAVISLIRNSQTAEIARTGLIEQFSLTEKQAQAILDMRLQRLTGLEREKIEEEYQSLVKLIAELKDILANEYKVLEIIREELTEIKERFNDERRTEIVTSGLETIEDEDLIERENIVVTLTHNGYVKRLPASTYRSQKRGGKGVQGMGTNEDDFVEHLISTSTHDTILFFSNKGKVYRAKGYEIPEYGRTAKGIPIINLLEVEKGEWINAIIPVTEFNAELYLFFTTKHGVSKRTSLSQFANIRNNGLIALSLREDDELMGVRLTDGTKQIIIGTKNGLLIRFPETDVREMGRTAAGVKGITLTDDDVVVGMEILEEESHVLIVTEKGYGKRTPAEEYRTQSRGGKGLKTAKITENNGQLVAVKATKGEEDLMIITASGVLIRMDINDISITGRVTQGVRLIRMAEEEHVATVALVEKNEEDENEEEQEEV

[23] = Bacillus subtilis, read-out: MIC

Structure (SMILES)	IC50 [1] [µM]	MBC [2] [µg/mL]	MIC [2] [µg/mL]	MBC [3] [µg/mL]	MIC [3] [µg/mL]	MIC [4] [µg/mL]	MBC [4] [µg/mL]	MBC [5] [µg/mL]	MIC [5] [µg/mL]	MBC [6] [µg/mL]	MIC [6] [µg/mL]	MBC ([7]; Bacillus subtilis) [µg/mL]	MIC [7, 23] [µg/mL]	Mean Diameter of Inhibition Zone against MDRB [8] [mm]	zone of inhibition at 500 µg/mL [9] [mm]	zone of inhibition at 500 µg/mL [10] [mm]	zone of inhibition at 500 µg/mL [11] [mm]	zone of inhibition at 500 µg/mL [12] [mm]	Mean Diameter of Inhibition Zone against MDRB [13] [mm]	Mean Diameter of Inhibition Zone against MDRB [14] [mm]	also measured
COc1ccc(Nc2n[nH]c(N=Cc3ccc(N4CCCCC4)cc3)c2C(N)=O)cc1 [8a, 3-(p-Methoxyphenylamino)-5-(4-(piperidin-1-yl)benzylideneamino)-1H-pyrazole-4-carboxamide]	7.69 ± 0.23	5.57 (≈ 13.3 µM)	5.57 (≈ 13.3 µM)	6.63 (≈ 15.8 µM)	3.9 (≈ 9.32 µM)	7.81 (≈ 18.7 µM)	12.5 (≈ 29.8 µM)	10.6 (≈ 25.3 µM)	5.57 (≈ 13.3 µM)	1.94 (≈ 4.64 µM)	0.97 (≈ 2.32 µM)	3.9 (≈ 9.32 µM)	1.92 (≈ 4.59 µM)	26 ± 0.15	25 ± 0.33	25 ± 0.85	23 ± 0.14	27 ± 0.5	27 ± 0.54	24 ± 0.12	Fold more than Tetracycline (MIC) [5]: 11.2 fold; Fold more than Tetracycline (MIC) [6]: 16 fold; MIC [7]: 1.95 µg/mL (≈ 4.66 µM); zone of inhibition at 500 µg/mL [15]: 26 ± 0.14 mm; zone of inhibition at 500 µg/mL [16]: 23 ± 0.11 mm; zone of inhibition at 500 µg/mL [17]: 20 ± 0.82 mm; zone of inhibition at 500 µg/mL [18]: 24 ± 0.3 mm; IC50 [19]: 3.98 ± 0.61 µM; Fold potential relative to Trimethoprim (IC50) [19]: 1.3 fold; IC50 [20]: 2.25 ± 0.85 µM; IC50 [21]: 1.98 ± 1.55 µM; Fold relative to doxorubicin (IC50) [21]: 0.979 fold; IC50 [22]: 15.3 ± 0.5 µM
COc1ccc(Nc2n[nH]c(N=Cc3cc(OC)c(OC)c(OC)c3)c2C(=O)Nc2ccccc2)cc1 [9b, 3-(p-Methoxyphenylamino)-N-phenyl-5-(3,4,5-trimethoxybenzylideneamino)-1H-pyrazole-4-carboxamide]	10.5 ± 0.55	15.6 (≈ 31.1 µM)	7.81 (≈ 15.6 µM)	7.41 (≈ 14.8 µM)	3.9 (≈ 7.78 µM)	5.57 (≈ 11.1 µM)	10.6 (≈ 21.1 µM)	31.2 (≈ 62.3 µM)	15.6 (≈ 31.1 µM)	14.1 (≈ 28 µM)	7.81 (≈ 15.6 µM)	9.2 (≈ 18.3 µM)	4.5 (≈ 8.97 µM)	24 ± 0.65	24 ± 0.35	21 ± 0.55	23 ± 0.2	25 ± 0.87	24 ± 0.88	25 ± 0.12	Fold more potent than Tetracycline (MIC) [7]: 6 fold; zone of inhibition at 500 µg/mL [15]: 21 ± 0.3 mm; zone of inhibition at 500 µg/mL [16]: 23 ± 0.4 mm; zone of inhibition at 500 µg/mL [17]: 17 ± 0.5 mm; zone of inhibition at 500 µg/mL [18]: 19 ± 0.25 mm; IC50 [19]: 6.48 ± 0.33 µM; Fold potential relative to Trimethoprim (IC50) [19]: 0.80 fold; IC50 [20]: 1.92 ± 0.49 µM; IC50 [21]: 2.21 ± 0.36 µM; Fold relative to doxorubicin (IC50) [21]: 0.877 fold; IC50 [22]: 14.2 ± 0.42 µM
